Measurements reported in patent US8383637B2, “2-amino-quinazoline derivatives useful as inhibitors of β-secretase (BACE)” (Jansssen Pharmaceutica N.V., priority 2004, dated 2013).
“And” between values parts separate entries of the source, which are not always exact repeats. Identical values can stand only once. Like-named read-outs stand apart in the source and are kept apart here.

Experiments:
β-secretase(BACE) [1] = biological target: T1, β-secretase(BACE) (Homo sapiens, UniProt P56817); test: BACE Assay-2 (FS1 substrate, IC50 and Ki); format: biochemical; conditions: procedure of Example 159, FS1 substrate; read-out: Ki μM (159)
T1 construct: purchased Panvera
T1 sequence (P56817 46-501): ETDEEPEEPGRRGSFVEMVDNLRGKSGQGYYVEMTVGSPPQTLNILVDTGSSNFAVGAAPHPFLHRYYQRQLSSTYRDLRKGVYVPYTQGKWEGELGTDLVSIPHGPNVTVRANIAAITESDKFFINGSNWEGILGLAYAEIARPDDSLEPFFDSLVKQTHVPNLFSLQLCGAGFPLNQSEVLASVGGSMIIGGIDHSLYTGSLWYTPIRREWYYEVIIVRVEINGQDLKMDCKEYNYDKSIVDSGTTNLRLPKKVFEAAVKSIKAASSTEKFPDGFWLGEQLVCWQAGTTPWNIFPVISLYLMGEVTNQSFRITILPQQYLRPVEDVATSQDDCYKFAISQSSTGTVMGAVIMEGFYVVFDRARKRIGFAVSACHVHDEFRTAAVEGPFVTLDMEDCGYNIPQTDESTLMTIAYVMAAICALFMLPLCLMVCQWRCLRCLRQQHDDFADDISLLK

β-secretase(BACE) [2] = biological target: T1, β-secretase(BACE); test: BACE FS1% Inhibition Assay; format: biochemical; conditions: FS1 substrate; for % Inhibition (FS) 0.3 μM / inhibition at 0.3 µM: 0.3 μM test compound; for % Inhibition (FS) 1 μM / inhibition at 1 µM: 1 μM test compound; for % Inhibition (FS) 3 μM / inhibition at 3 µM: 3 μM test compound
Summary of the method: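 Percent inhibition at each tested concentration, referenced to enzyme-free blank and vehicle-only positive control. Reaction: compound and BACE (4 μg/mL working stock) mixed 20 min at room temperature before FS1 substrate (300 μg/mL working stock), then 1 h at room temperature.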

[3] = read-out: % Inhibition (FS) 0.3 μM
[4] = read-out: % Inhibition (FS) 1 μM
[5] = read-out: % Inhibition (FS) 3 μM

Ki (β-secretase(BACE) [1]) | inhibition at 0.3 µM (β-secretase(BACE) [2]; read-out: % Inhibition (FS)) | inhibition at 1 µM (β-secretase(BACE) [2]; read-out: % Inhibition (FS)) | inhibition at 3 µM (β-secretase(BACE) [2]; read-out: % Inhibition (FS)) | inhibition at 0.3 µM (β-secretase(BACE) [2]; [3]) | inhibition at 1 µM (β-secretase(BACE) [2]; [4]) | inhibition at 3 µM (β-secretase(BACE) [2]; [5]) | Compound | further results
0.027 µM | – | – | – | – | – | – | CCCC(CNC(=O)C1CCCCC1)N1Cc2cc(Oc3ccccc3)ccc2N=C1N (stereo not shown) [Compound 601] | % Inhibition (FS) 0.3 μM (β-secretase(BACE) [2]; 0.3 µM): 105%; % Inhibition (FS) 1 μM (β-secretase(BACE) [2]): 115%; % Inhibition (FS) 3 μM (β-secretase(BACE) [2]): 121%
0.025 µM | 112% | 112% | 116% | – | – | – | NC1=Nc2ccc(Oc3ccccc3)cc2CN1[C@@H](CCC(=O)N(CCOCc1ccccc1)[C@H]1CC[C@@H](C(=O)O)CC1)C1CCOCC1 [Compound 751, (S)-enantiomer of 4-[[4-(2-Amino-6-phenoxy-4H-quinazolin-3-yl)-4-(tetrahydro-pyran-4-yl)-butyryl]-(2-benzyloxy-ethyl)-amino]-cyclohexanecarboxylic acid] | –
0.19 µM | – | – | – | < 30% | 70% | 104% | CN(C(=O)CCN1Cc2cc(Oc3ccccc3)ccc2N=C1N)C1C2CC3CC(C2)CC1C3 (stereo not shown) [Compound 618] | –
0.32 µM | – | – | – | < 30% | 47% | 90% | NC1=Nc2ccc(Oc3ccccc3)cc2CN1CCNC(=O)Nc1ccccc1 [Compound 205] | –
0.045 µM | 102% | 107% | 120% | – | – | – | COC(=O)[C@@H](COCc1ccccc1)N(C)C(=O)CC[C@@H](C1CCCCC1)N1Cc2cc(Oc3ccccc3)ccc2N=C1N [Compound 779] | –
0.076 µM | – | – | – | 57% | 86% | 116% | NC1=Nc2ccc(-c3ccccc3F)cc2CN1CCNC(=O)C1CCCCC1 [Compound 535] | –
0.032 µM | – | – | – | 88% | 103% | 111% | Cc1ccccc1-c1ccc2c(c1)CN(CCNC(=O)C1CCCC1)C(N)=N2 [Compound 657, Cyclopentanecarboxylic acid [2-(2-amino-6-o-tolyl-4H-quinazolin-3-yl)-ethyl]-amide] | –
0.78 µM | – | – | – | 26% | 63% | 92% | COc1cccc(OC)c1-c1ccc2c(c1)CN(Cc1cccc(C(=O)N(C)C3CCCCC3)c1)C(N)=N2 [Compound 264] | –
0.1 µM | – | – | – | 34% | 85% | 113% | CC1CCCCC1NC(=O)CCN1Cc2cc(Oc3ccccc3)ccc2N=C1N (stereo not shown) [Compound 511] | –
0.32 µM | – | – | – | – | – | 79% | NC1=Nc2ccc(Oc3ccccc3)cc2CN1CCNC(=O)CCC1CCCC1 [Compound 140] | inhibition at 10 µM (β-secretase(BACE) [2]; 10 μM test compound, read-out: % Inhibition (FS) 10 μM): 101%
0.66 µM | – | – | – | 39% | 63% | 95% | Cc1cccc(C)c1-c1ccc2c(c1)CN(Cc1cccc(C(=O)N(C)C3CCCCC3)c1)C(N)=N2 [Compound 262] | –
0.77 µM | – | – | – | < 30% | 49% | 67% | CN(C(=O)c1cccc(CN2Cc3cc(-c4cccnc4)ccc3N=C2N)c1)C1CCCCC1 [Compound 170] | –
0.101 µM | 97% | 105% | 114% | – | – | – | COC(=O)[C@H](COCc1ccccc1)N(C)C(=O)CC[C@@H](C1CCOCC1)N1Cc2cc(Oc3ccccc3)ccc2N=C1N [Compound 786] | –
0.81 µM | – | – | – | < 30% | – | 60% | CN(C(=O)c1cccc(CN2Cc3cc(-c4ccccc4S(=O)(=O)NC(C)(C)C)ccc3N=C2N)c1)C1CCCCC1 [Compound 158] | % Inhibition (FS) 0.3 μM (β-secretase(BACE) [2]): <30%; % Inhibition (FS) 1 μM (β-secretase(BACE) [2]): <30% and 53%; % Inhibition (FS) 3 μM (β-secretase(BACE) [2]): 79%
0.13 µM | 46% | 90% | 116% | – | – | – | COC1CCCC(C(=O)NCCN2Cc3cc(-c4ccccc4Cl)ccc3N=C2N)C1 (stereo not shown) [Compound 692] | –
0.56 µM | – | – | – | < 30% | 46% | 100% | NC1=Nc2ccc(Oc3ccccc3)cc2CN1C(CNC(=O)C(c1ccccc1)c1ccccc1)C1CCCCC1 (stereo not shown) [Compound 304] | –
0.035 µM | 85% | 104% | 112% | – | – | – | CN(C(=O)CC[C@@H](C1CCOCC1)N1Cc2cc(Oc3ccccc3)ccc2N=C1N)[C@H]1CC[C@H](C(=O)O)CC1 [Compound 746] | –
0.301 µM | 109% | 110% | 121% | – | – | – | COC(=O)[C@@H](COCc1ccccc1)N(C)C(=O)CC[C@@H](C1CCOCC1)N1Cc2cc(Oc3ccccc3)ccc2N=C1N [Compound 783] | –
0.031 µM | 91% | 108% | 112% | – | – | – | COC(=O)[C@H]1CC[C@@H](N(C)C(=O)CC[C@@H](C2CCOCC2)N2Cc3cc(Oc4ccccc4)ccc3N=C2N)CC1 [Compound 744] | –
0.23 µM | 47% | 63% | 111% | – | – | – | Cc1cc(CN(C)C(=O)CC[C@@H](C2CCCCC2)N2Cc3cc(-c4ccccc4F)ccc3N=C2N)on1 [Compound 723] | –
0.18 µM | – | – | – | 54% | 103% | 126% | CN(C(=O)c1cccc(C(C2CCCCC2)N2Cc3cc(Oc4ccccc4)ccc3N=C2N)c1)C1CCCCC1 (stereo not shown) [Compound 534] | –
